Assay results taken from PMC5698418 (Nature Communications, 2017).
Starred links: 1 amine or outer side, 2 acyl side, 3 side chain; linkers in the order of their positions; H or OH if unused. Positions of bridges follow the written chain, without caps; N, C: chain ends. Non-standard residues stand in square brackets, D forms with d. Residues, ends and D or L forms follow the SMILES beside them. Chains are numbered I, II in the order given. Actinocin(9to1) = Cc1c2oc3c(C)ccc(C(=O)[*:1])c3nc-2c(C(=O)[*:2])c(N)c1=O; NMeV = CN[C@H](C(=O)O)C(C)C; Sar = CNCC(=O)O

Assays:
primary cortical neurons = conditions: screen at 16.7 µM, excluded from data analysis
Description: All 319 compounds were initially tested at a final concentration of 16.7 µM with three biological replicates.
(§1) Screening of compounds in the chemogenomic library was carried out using DIV13 primary forebrain cortical neurons cultured on poly-L-lysine/laminin-coated 96-well plates (Ibidi USA, Madison, WI). Cells were seeded at a density of 30,000 cells per well and treated with the compound library and BDNF according to the experimental design presented in Fig. 3a. After experimental treatment, cells were processed for Arc and acetyl-H3K9 immunocytochemistry according to the protocol described above. Both antigens (Arc and acetyl-H3K9) were imaged using an IN Cell Analyzer 6000 imaging system and a ×40 objective. […] High-throughput quantification of nuclear Arc immunofluorescence signal was performed in a similar fashion than the low-throughput procedure described above but with the exception that acetyl-H3K9 was used as a nuclear mask to guide the automated quantification of nuclear Arc immunofluorescence signal.

[1] = system: nuclear Arc in primary cortical neurons; experiment: Low-throughput nuclear Arc immunofluorescence assay (coverslips, Map2-positive cells); assay type: cell-based, mouse; conditions: for effect on BDNF-induced increase of nuclear Arc: co-treated with BDNF 6 h, k252a 100 nM, ActD 2 ng ml−1, CHX 50 µg ml−1, U0126 10 µM
Text: Next, using fluorescent immunocytochemistry we assessed to what extent the observed induction of total Arc protein expression measured by western blotting corresponded to an accumulation of Arc in the nucleus of our cultured neurons. We chose to focus on nuclear Arc at this point based on the assumption that it would provide a robust and easily tractable phenotype for testing a large set of compounds with the help of a quantitative, single-cell level, high-content, image-based screen. […] On the other hand, many but not all of the neurons in cultures that were treated with BDNF for 6 h had high levels of Arc in their nuclei (Fig. 2b). […] Finally, to further evaluate the sensitivity of our method to quantify nuclear Arc expression, we tested four pharmacological inhibitors predicted to prevent BDNF-induced Arc expression. […] These experimental results with known mechanism of action compounds critically guided the design and interpretation of the chemogenomic screen performed next.
(§2) Indirect immunofluorescence detection of antigens was carried out using cortical neurons cultured on poly-L-lysine/laminin-coated coverslips in 24-well plates at a density of 0.1 × 10^7 per well. After experimental treatment, cells were washed twice with PBS and fixed for 30 min at room temperature with 4% paraformaldehyde in PBS. After fixation, cells were washed twice with PBS, permeabilized with PBST (PBS + 0.25% Triton X-100) for 20 min, blocked in blocking solution (PBS + 5% normal goat serum) for another 30 min, and finally incubated overnight at 4 °C with the first primary antibody in blocking solution. The next day, coverslips were extensively washed with PBS and incubated for 2 h at room temperature in the appropriate fluorophore-conjugated secondary antibody solution (Alexa 488- or Alexa 594-conjugated secondary antibody (Molecular Probes, Invitrogen) in blocking solution). After washing with PBS, the coverslips were incubated again overnight in primary antibody solution for the second antigen, and the procedure for conjugation of the fluorophore-conjugated secondary antibody was repeated as above. Finally, cell nuclei were counterstained with 4′,6-diamidino-2-phenylindole (DAPI), and coverslips were mounted on glass slides with ProLong Antifade reagent (Invitrogen).
Cells cultured on coverslips from three independent biological replicates were imaged with an IN Cell Analyzer 6000 high-performance laser-based confocal imaging system and a ×40 objective (GE Healthcare Life Sciences, Marlborough, MA). Image preparation, assembly, and analysis were performed with ImageJ (NIH) and Photoshop CS. Change in contrast and evenness of the illumination was applied equally to all images presented in the study. The following procedure was used for low-throughput measurements. First, original raw tiff files were opened in ImageJ, the nucleus of all neurons in the image was located based on Map2 immunostaining, then average pixel intensity corresponding to Arc immunofluorescence was measured for a 30-pixel spot positioned at the center of the nuclear compartment. Second, for each measure of Arc nuclear immunofluorescence pixel intensity, a measure of background pixel intensity from the same image channel was acquired and subsequently subtracted from the Arc nuclear immunofluorescence pixel intensity value. Finally, Arc immunofluorescence signal from untreated samples was used to establish an objective threshold (two standard deviations above the nuclear Arc immunofluorescence signal averaged from a representative population of untreated neurons) and allow comparison of nuclear Arc expression between different experimental conditions.

Arc mRNA = Arc mRNA by real-time RT-PCR in primary cortical neurons; assay type: cell-based, mouse; conditions: 6 h BDNF plus U0126 10 µM or NSC23766 200 µM
Description: After experimental treatment, total RNA was isolated from primary cortical neuron cultures using the TRIzol method (Invitrogen). The concentration of total RNA was measured using a NanoDrop 1000 spectrophotometer (Thermo Fisher Scientific, Rockford, IL) and first-strand complementary DNA (cDNA) was synthesized using the iScript cDNA Synthesis Kit (Bio-Rad, Hercules, CA). Real-time PCRs were performed using gene-specific primers and monitored by quantification of SYBR Green I fluorescence using a Bio-Rad CFX96 Real-Time Detection System. Expression was normalized against Gapdh expression. The relative quantification from at least three biological replicates was performed using the comparative cycle threshold (∆∆CT) method.
Primers for real-time reverse transcription PCR experiments were: Arc, 5′-[…]-3′ (forward) and 5′-[…]-3′ (reverse); Map2, 5′-[…]-3′ (forward) and 5′-[…]-3′ (reverse); GluA1, 5′-[…]-3′ (forward) and 5′-[…]-3′ (reverse); GluA2, 5′-[…]-3′ (forward) and 5′-[…]-3′ (reverse); Gapdh, 5′-[…]-3′ (forward) and 5′-[…]-3′ (reverse).

acetyl-H3K9 = experiment: Acetyl-H3K9 immunofluorescence in neuronal nuclei (multiplexed in screen); assay type: cell-based, mouse
Description: To increase the throughput of our pharmacological screening for modulators of Arc, the above mentioned assay was adapted to cultures of mouse primary cortical neurons in 96-well plates.
as §1

[2] = system: BDNF-induced nuclear Arc expression in primary cortical neurons; experiment: Chemogenomic screen: high-content image-based assay of BDNF-induced nuclear Arc expression (96-well); assay type: cell-based, mouse; conditions: 16.7 µM, BDNF
In short: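 Nuclear Arc immunofluorescence is quantified automatically within an acetyl-H3K9-defined nuclear mask from ×40 images. Cultures are DIV13 mouse forebrain cortical neurons seeded at 30,000 per well and exposed to BDNF plus compound at a final 16.7 µM, with triplicate biological replicates.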

Arc protein = experiment: Western blot of total Arc protein in primary cortical neurons; assay type: cell-based, mouse; conditions: 6 h; BDNF 100 ng ml−1 or 4AP 40 µM + Bic 50 µM
Description: Forebrains of E16.5 C57BL/6 mouse embryos were dissected and then dissociated in trypsin solution for 15 min followed by three washes with phosphate-buffered saline (PBS). Single-cell suspension was achieved by gentle pipet trituration. Neurons were seeded in poly-L-lysine/laminin-coated six-well plates at a density of 2 × 10^6 per well and maintained in neurobasal medium containing B27 supplement (2%, Invitrogen, Grand Island, NY), penicillin (50 units ml^−1, Invitrogen), streptomycin (50 µg ml^−1, Invitrogen), and glutamine (1 mM, Sigma). For experiments involving BDNF (EMD Millipore Corps, Billerica, MA), the stock solution (2 ng µl^−1 in water) was added directly to the culture medium at a final concentration of 100 ng ml^−1 for the indicated period of time.
For western blot analyses, cells were collected by scraping in ice-cold radioimmunoprecipitation assay (RIPA) buffer (50 mM Tris-HCl (pH 8.0), 300 mM NaCl, 0.5% Igepal-630, 0.5% deoxycholic acid, 0.1% SDS, 1 mM EDTA) supplemented with a cocktail of protease inhibitors (Complete Protease Inhibitor without EDTA, Roche Applied Science, Indianapolis, IN) and phosphatase inhibitors (phosphatase inhibitor cocktail A, Santa Cruz Biotechnology). One volume of 2× Laemmli buffer (100 mM Tris-HCl (pH 6.8), 4% SDS, 0.15% bromophenol blue, 20% glycerol, 200 mM β-mercaptoethanol) was added and the extracts were boiled for 5 min. Samples were adjusted to an equal concentration after protein concentrations were determined using the BCA assay (Pierce, Thermo Fisher Scientific). Lysates were separated using SDS–PAGE and transferred to a nitrocellulose membrane. After transfer, the membrane was blocked in TBST (Tris-buffered saline + 0.1% Tween 20) supplemented with 5% nonfat powdered milk and probed with the indicated primary antibody at 4 °C overnight. After washing with TBST, the membrane was incubated with the appropriate secondary antibody and visualized using enhanced chemiluminescence (ECL) reagents according to the manufacturer’s guidelines (Pierce, Thermo Fisher Scientific).
The following procedure was used to quantify western blots. First, equal quantity of protein lysate was analyzed by SDS–PAGE for each biological replicate. Second, the exposure time of the film to the ECL chemiluminescence was the same for each biological replicate. Third, all the exposed films were scanned on a Brother MFC-J485DW scanner in grayscale at a resolution of 300 dpi. Fourth, the look-up table (LUT) of the scanned tiff images was inverted and the intensity of each band was individually measured using the selection tool and the histogram function in Adobe Photoshop CC 2015 software. […]

[3] = system: Arc puncta in dendrites of primary cortical neurons; experiment: Arc puncta along Map2-labeled dendrites (immunocytochemistry); assay type: cell-based, mouse; conditions: 16.7 µM with BDNF, vs untreated and BDNF alone; for BDNF: BDNF alone vs untreated
Text: Chemical structure of each compound is presented on top. b Graphs show mean (n = 5) Arc/β-actin ratio (±SEM) for cells treated as in a. […] Tukey’s HSD post hoc test, *p < 0.05; **p < 0.01, ***p < 0.005; ****p < 0.0001. […] Representative captures of DIV14 mouse primary cortical neurons from each experimental condition co-immunostained for Arc (red fluorophore) and Map2 (green fluorophore). White arrowheads show examples of discrete Arc puncta. […] Tukey’s HSD post hoc test, *p < 0.05; ***p < 0.005; ****p < 0.0001
as §2
(§3) Quantification of surface GluA1 puncta was performed according to the following strategy. First, overlapping digital images of GluA1 and Map2 immunostainings were collected using a Zeiss AxioObserver Z1 inverted microscope and ×63 oil immersion objective. Second, thresholding and segmentation based on the Map2 images was used to remove GluA1 signals outside of dendritic processes. Importantly, the same background/foreground cutoff threshold was used for images of all experimental conditions. Third, the length of dendrites for each image set was measured and recorded. Finally, distinct GluA1 foreground objects along dendrites >5 pixels were counted using the particle analysis tool in ImageJ and presented as the average number of GluA1 puncta per µm of dendrite length for each experimental condition.

surface GluA1 = experiment: Surface AMPAR (GluA1) imaging along dendrites; assay type: cell-based, mouse; conditions: 16.7 µM, 6 h with BDNF, vs untreated and BDNF alone; for BDNF: BDNF alone vs baseline
Description: Our procedure to label surface AMPARs containing the GluA1 subunit was adapted from two reports[14],[61]. Precisely, DIV14 primary cortical neurons cultured on coverslips were rinsed once with room temperature PBS^MC (PBS containing 0.5 mM CaCl2, 1 mM MgCl2, and 4% sucrose). Live cells were then incubated for 30 min at room temperature with GluA1 primary antibody solution (PBS^MC with antibody against the extracellular N-terminus of GluA1 (EMD Millipore Corp, clone RH95, 5.0 µg ml^−1)). Next, cells were rinsed twice with ice-cold PBS^MC followed by fixation with 4% paraformaldehyde + 4% sucrose solution for 15 min at room temperature. After fixation, neurons were washed with regular PBS and then incubated overnight with Map2 primary antibody solution (PBS with 0.125% Triton X-100, 5% normal goat serum, and anti-Map2 antibody) to label dendrites. Next day, coverslips were washed with PBS, incubated with appropriate secondary antibodies for 1 h at room temperature, and finally mounted on glass slides with ProLong Antifade reagent (Invitrogen).
as §3

## CCCCN(CC)c1nc(C)nc2c1c(C)c(C)n2-c1c(C)cc(C)cc1C.Cl [Antalarmin hydrochloride]
Primary cortical neurons
  Reason for exclusion: Cell death - toxicity

## CNCC[C@H](Oc1cccc2ccccc12)c1cccs1 [Duloxetine]
Primary cortical neurons
  Reason for exclusion: Cell death - toxicity

## Oc1cc(O)c2c(c1)O[C@H](c1cc(O)c(O)c(O)c1)[C@H](O)C2 [Epigallocatechin, Epigallocatechol, Epigallocatechin]
Primary cortical neurons
  Reason for exclusion: Cell death - toxicity

## COC(=O)[C@@]1(O)C[C@H]2O[C@]1(C)n1c3ccccc3c3c4c(c5c6ccccc6n2c5c31)C(=O)NC4 [K252a]
[1]
  effect on BDNF-induced increase of nuclear Arc: effectively prevented the increase of nuclear Arc

## CCN(CC)CCCC(C)Nc1nc(C)cc(Nc2ccc3nc(C)cc(N)c3c2)n1 (centres unmarked) [NSC23766]
Arc mRNA
  effect on BDNF-induced Arc mRNA expression (RT-qPCR): prevented BDNF-induced Arc expression but not Rac1 inhibition by NSC23766

## CC(C)COc1ccc(CNC(=O)N(Cc2ccc(F)cc2)C2CCN(C)CC2)cc1 [Pimavanserin (ACP-103), Pimavanserin]
Primary cortical neurons
  Reason for exclusion: Cell death - toxicity

## C[C@@H](NC(=O)C(=O)c1c[nH]c2ccc([N+](=O)[O-])cc12)c1ccccc1 [TCS 1205]
Primary cortical neurons
  Reason for exclusion: Cell death - toxicity

## N#CC(=C(/N)Sc1ccccc1N)/C(C#N)=C(/N)Sc1ccccc1N [U0126]
[1]
  effect on BDNF-induced increase of nuclear Arc: effectively prevented the increase of nuclear Arc
Arc mRNA
  effect on BDNF-induced Arc mRNA expression (RT-qPCR): prevented BDNF-induced Arc expression

## COc1cc2c(NC3CCN(C(C)C)CC3)nc(C3CCCCC3)nc2cc1OCCCN1CCCC1 [UNC 0638]
Primary cortical neurons
  Reason for exclusion: Cell death - toxicity

## Cc1c2oc3c(C)ccc(C(=O)N[C@@H]4C(=O)N[C@H](C(C)C)C(=O)N5CCC[C@H]5C(=O)N(C)CC(=O)N(C)[C@@H](C(C)C)C(=O)O[C@@H]4C)c3nc-2c(C(=O)N[C@@H]2C(=O)N[C@H](C(C)C)C(=O)N3CCC[C@H]3C(=O)N(C)CC(=O)N(C)[C@@H](C(C)C)C(=O)O[C@@H]2C)c(N)c1=O [actinomycin D] (I: T[dV]P[Sar][NMeV] / II: T[dV]P[Sar][NMeV]; ester I:1-I:C, II:1-II:C; linker I:N-II:N via Actinocin(9to1))
[1]
  effect on BDNF-induced increase of nuclear Arc: effectively prevented the increase of nuclear Arc

## C[C@@H]1C[C@@H]([C@H](O)CC2CC(=O)NC(=O)C2)C(=O)[C@@H](C)C1 [cycloheximide]
[1]
  effect on BDNF-induced increase of nuclear Arc: effectively prevented the increase of nuclear Arc

## Nc1ccccc1NC(=O)c1ccc(CNC(=O)OCc2cccnc2)cc1 [entinostat, reference compound]
acetyl-H3K9; screen, 16.7 µM
  impact on acetyl-H3K9 immunofluorescence (Z-score): strong impact
[2]
  occurrence of neuronal nuclei with above threshold nuclear Arc immunofluorescence signal, factor in relation to control (DMSO plus BDNF): ≥ 1.5

B1: BDNF: recombinant brain-derived neurotrophic factor, 100 ng ml−1 (protein, UniProt P23560 19-247, looked up)
Neurotrophic factor BDNF …: APMKEANIRGQGGLAYPGVRTHGTLESVNGPKAGSRGLTSLADTFEHVIEELLDEDQKVRPNEENNKDADLYTSRVMLSSQVPLEPPLLFLLEEYKNYLDAANMSMRVRRHSDPARRGELSVCDSISEWVTAADKKTAVDMSGGTVTVLEKVPVSKGQLKQYFYETKCNPMGYTKEGCRGIDKRHWNSQCRTTQSYVRALTMDSKKRIGWRFIRIDTSCVCTLTIKRGR
acetyl-H3K9; BDNF 6 h
  acetyl-H3K9 immunofluorescence intensity levels in primary cortical neurons: unaffected
Arc protein
  Arc protein abundance vs untreated control (western blot): significantly more Arc protein
[3]
  number of Arc puncta in dendritic projections: did not observe a significant difference
[1]; BDNF 100 ng ml−1, 6 h, n = 331 neurons
  neurons with Arc-specific nuclear average pixel intensity above threshold (> 2σ of untreated): 17.5%
[1]; BDNF 24 h, n = 334
  neuronal nuclei with above threshold average nuclear Arc signal (> 2σ): 4.2%
Surface GluA1
  surface GluA1 puncta per dendrite µm: did not influence, in one way or the other, the number of GluA1 puncta
